# In PubChem BioAssay (NCI):
# Several values for one entry are separate records, joined by “and”; a condition that tells them apart may be missing. Equal entries are not always repeated.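 Method: 48-hour compound exposure of cells in 96-well plates, five concentrations, linear interpolation of endpoints. GI50 = concentration required for 50% inhibition of growth. TGI marks complete inhibition of growth.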 Where a SMILES comes first, the peptide text is derived from it. [ ]: non-standard residue; d: D form. The star is where a group is joined. ξ: configuration not given here. NMeF = CN[CH](Cc1ccccc1)C(=O)O; ξNMe2Val = CC(C)C(C(=O)*)N(C)C; NMeV = CN[CH](C(=O)O)C(C)C; OtBu = CC(C)(C)O*
# Experiments:
# Assay in all cases: growth of human tumour cells (NCI), 48 h
# [1] = tested on: SR leukemia
# [2] = tested on: ACHN renal
# [3] = tested on: KM20L2 colon
# [4] = tested on: M14 melanoma
# [5] = tested on: SNB-78 CNS
# [6] = tested on: SK-MEL-2 melanoma
# [7] = tested on: UACC-257 melanoma
# [8] = tested on: MOLT-4 leukemia
# [9] = tested on: 786-0 renal
# [10] = tested on: M19-MEL melanoma
# [11] = tested on: SN12C renal
# [12] = tested on: DMS 273 small cell lung
# [13] = tested on: T-47D breast
Structure (SMILES),TGI [1] [µM],TGI [2] [µM],TGI [3] [µM],TGI [4] [µM],TGI [5] [µM],TGI [6],TGI [7],TGI [8] [µM],TGI [9] [µM],TGI [10] [µM],TGI [11] [µM],TGI [12] [µM],TGI [13] [µM],GI50 [1] [µM],GI50 [4] [µM],GI50 [6] [µM],GI50 [13] [µM],GI50 [8] [µM],GI50 [11] [µM],GI50 [7] [µM]
CC#COS(=O)(=O)c1ccc(C)cc1,> 100,> 100,> 100,> 100,> 100,> 100 µM,> 100 µM,> 100,> 100,> 100,> 100,–,–,–,–,–,–,–,–,–
CC(C)C(C(=O)N(C)C(Cc1ccccc1)C(=O)N(C)C(C(=O)N(C)C(C(=O)N1CCCC1C(=O)OC(C)(C)C)C(C)C)C(C)C)N(C)C (stereo unspecified) (ξNMe2Val-[NMeF][NMeV][NMeV]P-OtBu; configuration not given here),> 100,> 100,46.4,51.2,–,–,> 100 µM,33.7,> 100,> 100,> 100,84.1,–,–,–,–,–,–,–,–
Cc1nn2c(c1C#N)NNc1c-2sc(=N)nnc1=O,> 100,–,> 100,> 100,–,–,–,> 100,> 100,> 100,> 100,–,–,–,–,–,–,–,–,–
CSc1nc(NCc2ccccc2)c2cnn(COCCO)c2n1,> 100,62.1,–,> 100,–,> 100 µM,64 µM,86.7,> 100,–,> 100,–,> 100,–,–,–,–,–,–,–
CCOS(=O)(=O)c1ccc(-c2c3nc(c(-c4ccc(S(=O)(=O)OCC)cc4)c4ccc([nH]4)c(-c4ccc(S(=O)(=O)OCC)cc4)c4nc(c(-c5ccc(S(=O)(=O)OCC)cc5)c5ccc2[nH]5)C=C4)C=C3)cc1,> 31.6,> 31.6,–,> 31.6,–,> 31.6 µM,> 31.6 µM,> 31.6,> 31.6,–,> 31.6,–,> 31.6,–,–,–,–,–,–,–
CN(C)CC1CCC/C(=C\c2ccc(OC(=O)/C=C/c3ccc(Cl)cc3)cc2)C1=O (stereo unspecified),2.87,5.73,–,20,–,25.1 µM,32.6 µM,2.86,3.05,–,12.8,–,4.64,–,–,–,–,–,–,–
Cc1ccnc(Nc2[nH]c(C(=O)c3ccc(Cl)cc3)c(N)c2C(=S)Nc2ccccc2)c1,39,55.8,–,31.9,–,21.5 µM,32.7 µM,48.5,34.8,–,31,–,> 100,–,–,–,–,–,–,–
C/C(=N\NC(N)=S)c1nc2ncccc2[nH]1,> 100,> 100,–,> 100,–,> 100 µM,> 100 µM,> 100,> 100,–,> 100,–,> 100,–,–,–,–,–,–,–
O=S(O)c1cc(Cl)c(O)c(Cl)c1,> 100,> 100,–,> 100,> 100,> 100 µM,> 100 µM,> 100,–,> 100,> 100,–,–,–,–,–,–,–,–,–
Cc1cc(C)c2c(n1)S(=O)(=O)N(CCCN1CCN(c3cccc(Cl)c3)CC1)/C(=C(\O)c1ccc(Br)cc1)C2=O,> 100,> 100,–,> 100,–,69.4 µM,45.3 µM,60.2,38.2,–,53.2,–,> 100,–,–,–,–,–,–,–
COC(=O)C12Oc3ccc(-c4ccc5c(c4O)C(O)=C4C(=O)CC(C)C(O)C4(C(=O)OC)O5)c(O)c3C(O)=C1C(=O)CC(C)C2O (stereo unspecified),0.224,> 32.1,–,0.89,–,1.02 µM,1.34 µM,2.9,> 32.2,–,> 100,–,> 29.1,–,–,–,–,–,–,–
N#COc1ccc(Oc2ccc(OC#N)cc2)cc1,50.1,> 100,> 100,> 100,> 100,> 100 µM,> 100 µM,> 100,> 100,> 100,> 100,–,–,–,–,–,–,–,–,–
COc1ccc([I+]c2ccc(OC)cc2)cc1,> 100,> 100,–,> 100,–,> 100 µM,> 100 µM,> 100,> 100,–,> 100,–,> 100,3.81,13.4,43.9,13.5,55.4,29.3,–
CCN(C(=O)N[C@H](C(=O)N[C@@H](CSC)C(=O)N[C@@H](C)C(=O)OC)C(C)C)c1ccccc1,18.2,28.9,–,28.7,–,37.8 µM,25 µM,26.7,34.2,–,43.1,–,76.3,–,–,–,–,–,–,–
CC1OC(O[C@@H]2C=C3CC[C@@H]4[C@H](CC[C@]5(C)[C@@H](c6ccc(=O)oc6)CC[C@]45O)[C@@]3(C)CC2)C(O)C(OC2OC(CO)C(O)C(O)C2O)C1O (stereo partly specified),–,0.00301,0.0545,0.0148,0.033,0.0409 µM and 0.0257 µM,0.0441 µM and 0.0265 µM,–,0.0117,0.039,–,–,–,–,0.00096,0.000866,0.00216,–,–,0.00126
NC1=Nc2ccccc2Sc2cccc(F)c21,> 100,> 100,–,> 100,–,> 100 µM,> 100 µM,> 100,> 100,–,> 100,–,> 100,–,–,–,–,–,–,–
